From PubChem BioAssay (NCI)
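These data come from cells grown in 96-well plates and exposed to compound for 48 hours at five concentrations. TGI: total growth inhibition.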

Legend:
Experiment in all cases: growth of human tumour cells (NCI), 48 h
786-0 renal = test system: 786-0 renal
A498 renal = test system: A498 renal
A549 NSCLC = test system: A549 NSCLC
ACHN renal = test system: ACHN renal
BT-549 breast = test system: BT-549 breast
CAKI-1 renal = test system: CAKI-1 renal
CCRF-CEM leukemia = test system: CCRF-CEM leukemia
COLO 205 colon = test system: COLO 205 colon
DU-145 prostate = test system: DU-145 prostate
EKVX NSCLC = test system: EKVX NSCLC
HCC-2998 colon = test system: HCC-2998 colon
HCT-116 colon = test system: HCT-116 colon
HCT-15 colon = test system: HCT-15 colon
HL-60(TB) leukemia = test system: HL-60(TB) leukemia
HOP-62 NSCLC = test system: HOP-62 NSCLC
HOP-92 NSCLC = test system: HOP-92 NSCLC
HS 578T breast = test system: HS 578T breast
HT29 colon = test system: HT29 colon
IGROV1 ovarian = test system: IGROV1 ovarian
K-562 leukemia = test system: K-562 leukemia
KM12 colon = test system: KM12 colon
LOX IMVI melanoma = test system: LOX IMVI melanoma
M14 melanoma = test system: M14 melanoma
MALME-3M melanoma = test system: MALME-3M melanoma
MCF7 breast = test system: MCF7 breast
MDA-MB-231 breast = test system: MDA-MB-231 breast
MDA-MB-435 = test system: MDA-MB-435
MDA-N = test system: MDA-N
MOLT-4 leukemia = test system: MOLT-4 leukemia
NCI-H226 lung = test system: NCI-H226 lung
NCI-H23 lung = test system: NCI-H23 lung
NCI-H460 lung = test system: NCI-H460 lung
NCI-H522 lung = test system: NCI-H522 lung
NCI/ADR-RES ovarian = test system: NCI/ADR-RES ovarian
OVCAR-3 ovarian = test system: OVCAR-3 ovarian
OVCAR-4 ovarian = test system: OVCAR-4 ovarian
OVCAR-5 ovarian = test system: OVCAR-5 ovarian
OVCAR-8 ovarian = test system: OVCAR-8 ovarian
PC-3 prostate = test system: PC-3 prostate
RPMI-8226 leukemia = test system: RPMI-8226 leukemia
RXF 393 renal = test system: RXF 393 renal
SF-268 CNS = test system: SF-268 CNS
SF-295 CNS = test system: SF-295 CNS
SK-MEL-28 melanoma = test system: SK-MEL-28 melanoma
SK-MEL-5 melanoma = test system: SK-MEL-5 melanoma
SK-OV-3 ovarian = test system: SK-OV-3 ovarian
SNB-19 CNS = test system: SNB-19 CNS
SNB-75 CNS = test system: SNB-75 CNS
SR leukemia = test system: SR leukemia
SW-620 colon = test system: SW-620 colon
TK-10 renal = test system: TK-10 renal
U251 CNS = test system: U251 CNS
UACC-257 melanoma = test system: UACC-257 melanoma
UACC-62 melanoma = test system: UACC-62 melanoma
UO-31 renal = test system: UO-31 renal
SF-539 CNS = test system: SF-539 CNS
SK-MEL-2 melanoma = test system: SK-MEL-2 melanoma
SN12C renal = test system: SN12C renal

Structure (SMILES): NC(=Nc1ccc(Cl)cc1)c1ccccc1N
- TGI (786-0 renal): > 100 µM
- TGI (A498 renal): > 100 µM
- TGI (A549 NSCLC): > 100 µM
- TGI (ACHN renal): > 100 µM
- TGI (BT-549 breast): > 100 µM
- TGI (CAKI-1 renal): > 100 µM
- TGI (CCRF-CEM leukemia): > 100 µM
- TGI (COLO 205 colon): > 100 µM
- TGI (DU-145 prostate): > 100 µM
- TGI (EKVX NSCLC): > 100 µM
- TGI (HCC-2998 colon): > 100 µM
- TGI (HCT-116 colon): > 100 µM
- TGI (HCT-15 colon): > 100 µM
- TGI (HL-60(TB) leukemia): > 100 µM
- TGI (HOP-62 NSCLC): > 100 µM
- TGI (HOP-92 NSCLC): > 100 µM
- TGI (HS 578T breast): > 100 µM
- TGI (HT29 colon): > 100 µM
- TGI (IGROV1 ovarian): > 100 µM
- TGI (K-562 leukemia): > 100 µM
- TGI (KM12 colon): > 100 µM
- TGI (LOX IMVI melanoma): > 100 µM
- TGI (M14 melanoma): > 100 µM
- TGI (MALME-3M melanoma): > 100 µM
- TGI (MCF7 breast): > 100 µM
- TGI (MDA-MB-231 breast): > 100 µM
- TGI (MDA-MB-435): > 100 µM
- TGI (MDA-N): > 100 µM
- TGI (MOLT-4 leukemia): > 100 µM
- TGI (NCI-H226 lung): > 100 µM
- TGI (NCI-H23 lung): > 100 µM
- TGI (NCI-H460 lung): > 100 µM
- TGI (NCI-H522 lung): > 100 µM
- TGI (NCI/ADR-RES ovarian): > 100 µM
- TGI (OVCAR-3 ovarian): > 100 µM
- TGI (OVCAR-4 ovarian): > 100 µM
- TGI (OVCAR-5 ovarian): > 100 µM
- TGI (OVCAR-8 ovarian): > 100 µM
- TGI (PC-3 prostate): > 100 µM
- TGI (RPMI-8226 leukemia): > 100 µM
- TGI (RXF 393 renal): > 100 µM
- TGI (SF-268 CNS): > 100 µM
- TGI (SF-295 CNS): > 100 µM
- TGI (SK-MEL-28 melanoma): > 100 µM
- TGI (SK-MEL-5 melanoma): > 100 µM
- TGI (SK-OV-3 ovarian): > 100 µM
- TGI (SNB-19 CNS): > 100 µM
- TGI (SNB-75 CNS): > 100 µM
- TGI (SR leukemia): > 100 µM
- TGI (SW-620 colon): > 100 µM
- TGI (TK-10 renal): > 100 µM
- TGI (U251 CNS): > 100 µM
- TGI (UACC-257 melanoma): > 100 µM
- TGI (UACC-62 melanoma): > 100 µM
- TGI (UO-31 renal): > 100 µM

Structure (SMILES): CC(=O)Oc1ccc(/C=C/C(=O)NCC(NC(=O)/C=C/c2ccc(OC(C)=O)c(OC(C)=O)c2)C(=O)O)cc1OC(C)=O (stereo not given)
- TGI (786-0 renal): > 100 µM
- TGI (A498 renal): > 100 µM
- TGI (A549 NSCLC): > 100 µM
- TGI (ACHN renal): > 100 µM
- TGI (BT-549 breast): > 100 µM
- TGI (CAKI-1 renal): > 100 µM
- TGI (CCRF-CEM leukemia): > 100 µM
- TGI (COLO 205 colon): > 100 µM
- TGI (DU-145 prostate): > 100 µM
- TGI (EKVX NSCLC): > 100 µM
- TGI (HCC-2998 colon): > 100 µM
- TGI (HCT-116 colon): > 100 µM
- TGI (HCT-15 colon): > 100 µM
- TGI (HOP-62 NSCLC): > 100 µM
- TGI (HOP-92 NSCLC): > 100 µM
- TGI (HS 578T breast): > 100 µM
- TGI (HT29 colon): > 100 µM
- TGI (IGROV1 ovarian): > 100 µM
- TGI (K-562 leukemia): > 100 µM
- TGI (KM12 colon): > 100 µM
- TGI (LOX IMVI melanoma): > 100 µM
- TGI (M14 melanoma): > 100 µM
- TGI (MALME-3M melanoma): > 100 µM
- TGI (MCF7 breast): > 100 µM
- TGI (MDA-MB-231 breast): > 100 µM
- TGI (MDA-MB-435): > 100 µM
- TGI (MDA-N): > 100 µM
- TGI (MOLT-4 leukemia): 50.1 µM
- TGI (NCI-H226 lung): > 100 µM
- TGI (NCI-H23 lung): > 100 µM
- TGI (NCI-H460 lung): > 100 µM
- TGI (NCI-H522 lung): > 100 µM
- TGI (NCI/ADR-RES ovarian): > 100 µM
- TGI (OVCAR-3 ovarian): > 100 µM
- TGI (OVCAR-4 ovarian): > 100 µM
- TGI (OVCAR-5 ovarian): > 100 µM
- TGI (OVCAR-8 ovarian): > 100 µM
- TGI (PC-3 prostate): > 100 µM
- TGI (RPMI-8226 leukemia): > 100 µM
- TGI (RXF 393 renal): > 100 µM
- TGI (SF-268 CNS): > 100 µM
- TGI (SF-295 CNS): > 100 µM
- TGI (SF-539 CNS): > 100 µM
- TGI (SK-MEL-2 melanoma): > 100 µM
- TGI (SK-MEL-28 melanoma): > 100 µM
- TGI (SK-MEL-5 melanoma): > 100 µM
- TGI (SN12C renal): > 100 µM
- TGI (SNB-19 CNS): > 100 µM
- TGI (SR leukemia): > 100 µM
- TGI (SW-620 colon): > 100 µM
- TGI (TK-10 renal): > 100 µM
- TGI (U251 CNS): > 100 µM
- TGI (UACC-257 melanoma): > 100 µM
- TGI (UACC-62 melanoma): > 100 µM
- TGI (UO-31 renal): > 100 µM

Structure (SMILES): COc1ccc([C@H]2[C@H](C)C3=Nc4ccccc4CN32)cc1
- TGI (786-0 renal): > 100 µM
- TGI (A498 renal): > 100 µM
- TGI (A549 NSCLC): > 100 µM
- TGI (ACHN renal): > 100 µM
- TGI (BT-549 breast): > 100 µM
- TGI (CAKI-1 renal): > 100 µM
- TGI (COLO 205 colon): > 100 µM
- TGI (DU-145 prostate): > 100 µM
- TGI (EKVX NSCLC): > 100 µM
- TGI (HCC-2998 colon): > 100 µM
- TGI (HCT-116 colon): > 100 µM
- TGI (HCT-15 colon): > 100 µM
- TGI (HL-60(TB) leukemia): > 100 µM
- TGI (HOP-62 NSCLC): > 100 µM
- TGI (HOP-92 NSCLC): > 100 µM
- TGI (HS 578T breast): > 100 µM
- TGI (HT29 colon): > 100 µM
- TGI (IGROV1 ovarian): > 100 µM
- TGI (K-562 leukemia): > 100 µM
- TGI (KM12 colon): > 100 µM
- TGI (LOX IMVI melanoma): > 100 µM
- TGI (M14 melanoma): > 100 µM
- TGI (MALME-3M melanoma): > 100 µM
- TGI (MCF7 breast): > 100 µM
- TGI (MDA-MB-231 breast): > 100 µM
- TGI (MDA-MB-435): > 100 µM
- TGI (MDA-N): 47.2 µM
- TGI (MOLT-4 leukemia): > 100 µM
- TGI (NCI-H226 lung): > 100 µM
- TGI (NCI-H23 lung): > 100 µM
- TGI (NCI-H460 lung): > 100 µM
- TGI (NCI-H522 lung): > 100 µM
- TGI (NCI/ADR-RES ovarian): > 100 µM
- TGI (OVCAR-3 ovarian): > 100 µM
- TGI (OVCAR-4 ovarian): > 100 µM
- TGI (OVCAR-5 ovarian): > 100 µM
- TGI (OVCAR-8 ovarian): > 100 µM
- TGI (PC-3 prostate): > 100 µM
- TGI (RPMI-8226 leukemia): > 100 µM
- TGI (RXF 393 renal): > 100 µM
- TGI (SF-268 CNS): > 100 µM
- TGI (SF-295 CNS): > 100 µM
- TGI (SF-539 CNS): > 100 µM
- TGI (SK-MEL-2 melanoma): > 100 µM
- TGI (SK-MEL-28 melanoma): > 100 µM
- TGI (SK-MEL-5 melanoma): > 100 µM
- TGI (SN12C renal): > 100 µM
- TGI (SNB-19 CNS): > 100 µM
- TGI (SR leukemia): > 100 µM
- TGI (SW-620 colon): > 100 µM
- TGI (TK-10 renal): > 100 µM
- TGI (U251 CNS): > 100 µM
- TGI (UACC-257 melanoma): > 100 µM
- TGI (UACC-62 melanoma): > 100 µM
- TGI (UO-31 renal): > 100 µM
